In general, IC50 refers to the midpoint of a concentration-inhibition curve.

Drawing on patent US20140255392A1 (BAYER INTELLECTUAL PROPERTY GMBH, priority 2011, published 2014), this text covers IC50 for 25 molecules.

The target of the experiment is T1, human kinase Mps-1 (Homo sapiens, UniProt P33981).
T1 construct: N-terminally GST-tagged human full length recombinant Mps-1 kinase; GST (N); purchased Invitrogen, Karslruhe, Germany PV4071
T1 sequence (P33981 1-857): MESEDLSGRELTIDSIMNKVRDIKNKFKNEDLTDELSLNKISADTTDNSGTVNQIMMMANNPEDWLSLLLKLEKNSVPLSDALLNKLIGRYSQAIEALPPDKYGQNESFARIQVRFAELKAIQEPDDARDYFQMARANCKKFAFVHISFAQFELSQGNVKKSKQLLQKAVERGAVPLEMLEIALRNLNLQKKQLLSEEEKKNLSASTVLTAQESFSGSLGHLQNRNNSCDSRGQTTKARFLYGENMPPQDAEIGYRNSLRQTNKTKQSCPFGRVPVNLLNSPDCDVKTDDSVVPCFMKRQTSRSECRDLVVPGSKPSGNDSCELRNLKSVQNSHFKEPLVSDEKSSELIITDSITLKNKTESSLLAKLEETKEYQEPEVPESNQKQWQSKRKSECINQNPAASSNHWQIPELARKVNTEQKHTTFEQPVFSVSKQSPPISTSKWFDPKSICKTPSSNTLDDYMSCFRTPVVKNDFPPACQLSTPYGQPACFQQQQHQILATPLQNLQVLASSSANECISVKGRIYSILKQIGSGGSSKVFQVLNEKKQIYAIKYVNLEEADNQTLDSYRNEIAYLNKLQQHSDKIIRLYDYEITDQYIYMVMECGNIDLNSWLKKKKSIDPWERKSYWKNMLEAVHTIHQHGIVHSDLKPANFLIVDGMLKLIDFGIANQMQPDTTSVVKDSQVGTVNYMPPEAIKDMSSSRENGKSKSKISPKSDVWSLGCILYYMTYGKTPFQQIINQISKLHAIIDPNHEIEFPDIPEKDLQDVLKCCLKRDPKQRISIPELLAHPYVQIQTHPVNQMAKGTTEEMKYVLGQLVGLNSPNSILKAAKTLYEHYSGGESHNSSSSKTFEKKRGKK
The experiment is described as follows: Mps-1 kinase assay (TR-FRET). The following applies: N-terminally GST-tagged human full length recombinant Mps-1; 10 μM ATP; 1 μM peptide substrate; 60 min at 22° C. It counts as biochemical. In short, it runs like this:
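Inhibition of Mps-1 (N-terminal GST fusion, full length) toward a biotinylated peptide is read as Eu-to-XLent TR-FRET. Enzyme level, around 1 nM final, follows lot activity.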
(In general: TR-FRET usually uses a lanthanide donor and a delayed reading to cut background.)

As to `Cc1ccc(F)cc1Oc1cc(NCCC(F)(F)F)c2ncc(-c3ccc(C(=O)NC4CCC4)c(C)c3)n2c1` [Example 47, N-cyclobutyl-4-{6-(5-fluoro-2-methylphenoxy)-8-[(3,3,3-trifluoropropyl)amino]imidazo[1,2-a]pyridin-3-yl}-2-methylbenzamide], the IC50 stood at 7.6 nM.

As for `C=Cc1cc(NCCC(F)(F)F)c2ncc(-c3ccc(C(=O)NCC)c(C)c3)n2c1` [Example 94, N-ethyl-2-methyl-4-{8-[(3,3,3-trifluoropropyl)amino]-6-vinylimidazo[1,2-a]pyridin-3-yl}benzamide], the IC50 was 84.3 nM.

Consider `CNC(=O)c1ccc(-c2cnc3c(NCCC(F)(F)F)cc(Oc4ccc(O)c(F)c4)cn23)cc1C` [Example 130, 4-{6-(3-Fluoro-4-hydroxyphenoxy)-8-[(3,3,3-trifluoropropyl)amino]imidazo[1,2-a]pyridin-3-yl}-N,2-dimethylbenzamide], for which the IC50 turned out to be 0.9 nM.

Take `Cc1cc(-c2cnc3c(NCCC(F)(F)F)cc(-c4ccc(C(=O)NC5(CO)CC5)c(C)c4)cn23)ccc1C(=O)NC1CC1` [Example 151, 4-{3-[4-(cyclopropylcarbamoyl)-3-methylphenyl]-8-[(3,3,3-trifluoropropyl)amino]imidazo[1,2-a]pyridin-6-yl}-N-[1-(hydroxymethyl)cyclopropyl]-2-methylbenzamide]: the IC50 came out at 2.6 nM.

For the molecule `C#Cc1cc(NCCC(F)(F)F)c2ncc(-c3ccc(C(=O)N[C@@H]4C[C@H]4F)c(C)c3)n2c1` (relative stereo) [Example 16, 4-{6-ethynyl-8-[(3,3,3-trifluoropropyl)amino]imidazo[1,2-a]pyridin-3-yl}-N-[rel-(1R,2R)-2-fluorocyclopropyl]-2-methylbenzamide], the IC50 amounted to 29.4 nM.

Take `Cc1cc(-c2cnc3c(NCCC(F)(F)F)cc(Oc4cccc(OC(F)(F)F)c4)cn23)ccc1C(=O)NC1(C#N)CC1` [Example 75, N-(1-cyanocyclopropyl)-2-methyl-4-{6-[3-(trifluoromethoxy)phenoxy]-8-[(3,3,3-trifluoropropyl)amino]imidazo[1,2-a]pyridin-3-yl}benzamide]: the IC50 stood at 157 nM.

Take `C#Cc1cc(NCCC(F)(F)F)c2ncc(-c3ccc(C(=O)NC4(C)CC4)c(C)c3)n2c1` [Example 17, 4-{6-ethynyl-8-[(3,3,3-trifluoropropyl)amino]imidazo[1,2-a]pyridin-3-yl}-2-methyl-N-(1-methylcyclopropyl)benzamide]: the half-maximal inhibitory concentration (IC50) was 108 nM.

Turning to `Cc1cc(-c2cnc3c(NCCC(F)(F)F)cc(-c4ccccc4O)cn23)ccc1C(=O)NC1CC1` [Example 132, N-cyclopropyl-4-{6-(2-hydroxyphenyl)-8-[(3,3,3-trifluoropropyl)amino]imidazo[1,2-a]pyridin-3-yl}-2-methylbenzamide], the IC50 was 1.1 nM.

Consider `Cc1cc(-c2cnc3c(NCCC(F)(F)F)cc(Oc4cccc(Cl)c4)cn23)ccc1C(=O)NC1CC1` [Example 31, 4-{6-(3-chlorophenoxy)-8-[(3,3,3-trifluoropropyl)amino]imidazo[1,2-a]pyridin-3-yl}-N-cyclopropyl-2-methylbenzamide], for which the half-inhibitory concentration (IC50) was determined as 1.3 nM.

Take `C#Cc1cc(NCCC(F)(F)F)c2ncc(-c3ccc(C(=O)NC4(C#N)CC4)c(C)c3)n2c1` [Example 18, N-(1-cyanocyclopropyl)-4-{6-ethynyl-8-[(3,3,3-trifluoropropyl)amino]imidazo[1,2-a]pyridin-3-yl}-2-methylbenzamide]: the IC50 came out at 65.5 nM.

As to `Cc1cc(-c2cnc3c(NCCC(F)(F)F)cc(CCCO)cn23)ccc1C(=O)NC1CC1` [Example 128, N-cyclopropyl-4-{6-(3-hydroxypropyl)-8-[(3,3,3-trifluoropropyl)amino]imidazo[1,2-a]pyridin-3-yl}-2-methylbenzamide], the IC50 came to 9.5 nM.

In the case of `Cc1cc(-c2cnc3c(NCCC(F)(F)F)cc(Oc4cc(F)ccc4O)cn23)ccc1C(=O)NC1CC1` [Example 175, N-cyclopropyl-4-{6-(5-fluoro-2-hydroxyphenoxy)-8-[(3,3,3-trifluoropropyl)amino]imidazo[1,2-a]pyridin-3-yl}-2-methylbenzamide], the IC50 came to 3 nM.

Turning to `CNC(=O)c1ccc(-c2cnc3c(NCCC(F)(F)F)cc(Oc4cccc(O)c4)cn23)cc1C` [Example 139, 4-{6-(3-Hydroxyphenoxy)-8-[(3,3,3-trifluoropropyl)amino]imidazo[1,2-a]pyridin-3-yl}-N,2-dimethylbenzamide], the IC50 is 1.1 nM.

Turning to `Cc1cc(-c2cnc3c(NCCC(F)(F)F)cc(Oc4cccc(F)c4)cn23)ccc1C(=O)NC1CC1` [Example 6-1, N-cyclopropyl-4-{6-(3-fluorophenoxy)-8-[(3,3,3-trifluoropropyl)amino]imidazo[1,2-a]pyridin-3-yl}-2-methylbenzamide], the IC50 amounted to 0.3 nM.

On to `Cc1cc(-c2cnc3c(NCCC(F)(F)F)cc(Oc4cccc(Cl)c4)cn23)ccc1C(=O)NC1CC1F` (single isomer, unassigned) [Example 39 (A or ent.-A), 4-{6-(3-chlorophenoxy)-8-[(3,3,3-trifluoropropyl)amino]imidazo[1,2-a]pyridin-3-yl}-N-{[(1S,2S) or (1R,2R)]-2-fluorocyclopropyl}-2-methylbenzamide], for which the concentration for half-maximal inhibition (IC50) was found to be 2.9 nM.

For `Cc1cc(-c2cnc3c(NCCC(F)(F)F)cc(/C=C\CO)cn23)ccc1C(=O)N[C@@H]1C[C@H]1F` (relative stereo) [Example 118, N-[rel-(1R,2R)-2-fluorocyclopropyl]-4-{6-[(1Z)-3-hydroxyprop-1-en-1-yl]-8-[(3,3,3-trifluoropropyl)amino]imidazo[1,2-a]pyridin-3-yl}-2-methylbenzamide], the half-maximal inhibitory concentration (IC50) was 19.9 nM.

In the case of `Cc1cc(-c2cnc3c(NCCC(F)(F)F)cc(Oc4cccc(F)c4F)cn23)ccc1C(=O)NC1(C)CC1` [Example 71, 4-{6-(2,3-Difluorophenoxy)-8-[(3,3,3-trifluoropropyl)amino]imidazo[1,2-a]pyridin-3-yl}-2-methyl-N-(1-methylcyclopropyl)benzamide], the IC50 turned out to be 1.8 nM.

As to `COc1ccc(Oc2cc(NCCC(F)(F)F)c3ncc(-c4ccc(C(=O)NC5CC5)c(C)c4)n3c2)cc1F` [Example 42, N-cyclopropyl-4-{6-(3-fluoro-4-methoxyphenoxy)-8-[(3,3,3-trifluoroprorwl)amino]imidazo[1,2-a]pyridin-3-yl}-2-methylbenzamide], the half-inhibitory concentration (IC50) amounted to 0.4 nM.

In the case of `Cc1cc(-c2cnc3c(NCCC(F)(F)F)cc(Oc4cccc(F)c4)cn23)ccc1C(=O)NC1CCC1` [Example 24, N-cyclobutyl-4-{6-(3-fluorophenoxy)-8-[(3,3,3-trifluoropropyl)amino]imidazo[1,2-a]pyridin-3-yl}-2-methylbenzamide], the IC50 came out at 11.1 nM.

As for `Cc1cc(-c2cnc3c(NCC(F)F)cc(Oc4cccc(F)c4F)cn23)ccc1C(=O)NC1CC1` [Example 163, N-cyclopropyl-4-{8-[(2,2-difluoroethyl)amino]-6-(2,3-difluorophenoxy)imidazo[1,2-a]pyridin-3-yl}-2-methylbenzamide], the half-maximal inhibitory concentration (IC50) turned out to be 1.3 nM.

For `Cc1cc(-c2cnc3c(NCC(F)F)cc(Oc4cccc(F)c4)cn23)ccc1C(=O)NC1CC1` [Example 161, N-cyclopropyl-4-{8-[(2,2-difluoroethyl)amino]-6-(3-fluorophenoxy)imidazo[1,2-a]pyridin-3-yl}-2-methylbenzamide], the IC50 came to 2.3 nM.

Take `Cc1cc(-c2cnc3c(NCCC(F)(F)F)cc(Oc4cccc(F)c4F)cn23)ccc1C(=O)NC1(C#N)CC1` [Example 70, N-(1-cyanocyclopropyl)-4-{6-(2,3-difluorophenoxy)-8-[(3,3,3-trifluoropropyl)amino]imidazo[1,2-a]pyridin-3-yl}-2-methylbenzamide]: the IC50 turned out to be 3.8 nM.

On to `Cc1cc(-c2cnc3c(NCCC(F)(F)F)cc(Sc4ccccc4N)cn23)ccc1C(=O)NC1CC1` [Example 3-4, 4-{6-[(2-aminophenyl)sulfanyl]-8-[(3,3,3-trifluoropropyl)amino]imidazo[1,2-a]pyridin-3-yl}-N-cyclopropyl-2-methylbenzamide], for which the concentration for half-maximal inhibition (IC50) was 2 nM.

Turning to `Cc1cc(-c2cnc3c(NCCC(F)(F)F)cc(Oc4ccc(OC(F)(F)F)cc4)cn23)ccc1C(=O)NC1CC1` [Example 64, N-cyclopropyl-2-methyl-4-{6-[4-(trifluoromethoxy)phenoxy]-8-[(3,3,3-trifluoropropyl)amino]imidazo[1,2-a]pyridin-3-yl}benzamide], the IC50 came to 8.6 nM.

As for `COc1cccc(Oc2cc(NCCC(F)(F)F)c3ncc(-c4ccc(C(=O)NC5CC5)c(C)c4)n3c2)c1` [Example 52, N-cyclopropyl-4-{6-(3-methoxyphenoxy)-8-[(3,3,3-trifluoropropyl)amino]imidazo[1,2-a]pyridin-3-yl}-2-methylbenzamide], the 50% inhibitory concentration (IC50) was 0.9 nM.
